Laboratory results published in US20170232083A1, “METHODS OF DIAGNOSIS AND TREATMENT OF CELIAC DISEASE IN CHILDREN” (priority 2014, published 2017).

Test system: PBMC (polyclonal gluten-specific T cells) of paediatric and adult CD patients
Assay: IFN-γ ELISpot of PBMC after 3 day oral wheat challenge (SFU, % of maximal peptide response, dominance scores, EC50; Examples 5-6)
Assay type: cell-based, human
Settings: for IFN-γ ELISpot response: after oral wheat challenge
[1] = patient A, 11-17 yrs, cut-off 10 SFU
[2] = patient E, H, 11-17 yrs, cut-off 10 SFU
[3] = patient F, 11-17 yrs, cut-off 10 SFU
[4] = patient G, 11-17 yrs, cut-off 10 SFU
[5] = patient H (HLA-DQ2.5 homozygote), 3-5yrs, cut-off 10 SFU
[6] = patient H, 11-17 yrs, cut-off 10 SFU
[7] = patient ID not given, 11-17 yrs, cut-off 10 SFU
[8] = patient N, 3-5yrs, cut-off 10 SFU
[9] = patient P, 11-17 yrs, cut-off 21.6 SFU
[10] = patient Q, 11-17 yrs, cut-off 10 SFU
[11] = patient U, H, 11-17 yrs, cut-off 10 SFU
[12] = patient V, 6-10 yrs, cut-off 10 SFU
[13] = patient Y, 6-10 yrs, cut-off 10 SFU
[14] = patient eleven, 6-10 yrs, cut-off 10 SFU
[15] = patient four, 3-5yrs, cut-off 10 SFU
[16] = patient seven, 6-10 yrs, cut-off 10.5 SFU
[17] = patient ten, 3-5yrs, cut-off 10 SFU
[18] = patient three, 6-10 yrs, cut-off 10.5 SFU
[19] = patient twelve, 11-17 yrs, cut-off 10 SFU
[20] = patient two, 3-5yrs, cut-off 10 SFU
[21] = patient ten, max peptide 14.5 SFU

FPQPQQQFPQPQQ
IFN-γ ELISpot response [1]: 2 SFU | IFN-γ ELISpot response [2]: 12 SFU | Significant response as percentage of maximal peptide SFU (patient E, max peptide 224 SFU): (6-10% = ^) | IFN-γ ELISpot response [3]: 4 SFU | IFN-γ ELISpot response [4]: 1 SFU | IFN-γ ELISpot response [5]: 6 SFU | IFN-γ ELISpot response [6]: 5 SFU | IFN-γ ELISpot response [7]: 1 SFU | Significant response as percentage of maximal peptide SFU (patient II, max peptide 15 SFU): + (>70% = +) | IFN-γ ELISpot response [8]: 1 SFU | IFN-γ ELISpot response [9]: 4 SFU | IFN-γ ELISpot response [10]: 10 SFU | Significant response as percentage of maximal peptide SFU (patient Q, max peptide 97 SFU): ′ (11-20% = ′) | IFN-γ ELISpot response [11]: 4 SFU | IFN-γ ELISpot response [12]: 2 SFU | IFN-γ ELISpot response [13]: 6 SFU | IFN-γ ELISpot response [14]: 1 SFU | IFN-γ ELISpot response [15]: 5 SFU | IFN-γ ELISpot response [16]: 2 SFU | IFN-γ ELISpot response [17]: 4 SFU | IFN-γ ELISpot response [18]: 1 SFU | IFN-γ ELISpot response [19]: 5 SFU | IFN-γ ELISpot response [20]: 0 SFU

QPFPQPEQPIPVQ
IFN-γ ELISpot response [1]: 5 SFU | Significant response as percentage of maximal peptide SFU (patient D, max peptide 30.5 SFU): ′′′ (41-70% = ′′′) | IFN-γ ELISpot response [2]: 76 SFU | Significant response as percentage of maximal peptide SFU (patient E, max peptide 224 SFU): ′′ (21-40% = ′′) | IFN-γ ELISpot response [3]: 103 SFU | Significant response as percentage of maximal peptide SFU (patient F, max peptide 178 SFU): ′′′ (41-70% = ′′′) | IFN-γ ELISpot response [4]: 3 SFU | IFN-γ ELISpot response [5]: 29 SFU | IFN-γ ELISpot response [6]: 10 SFU | Significant response as percentage of maximal peptide SFU (patient H, max peptide 17 SFU): ′′′ (41-70% = ′′′) | IFN-γ ELISpot response [7]: 95 SFU | Significant response as percentage of maximal peptide SFU (patient J, max peptide 196 SFU): ′′′ (41-70% = ′′′) | Significant response as percentage of maximal peptide SFU (patient K, max peptide 53 SFU): ′ (11-20% = ′) | Significant response as percentage of maximal peptide SFU (patient M, max peptide 48 SFU): ′′′ (41-70% = ′′′) | IFN-γ ELISpot response [8]: 2 SFU | IFN-γ ELISpot response [9]: 42 SFU | Significant response as percentage of maximal peptide SFU (patient P, max peptide 64 SFU): ′′′ (41-70% = ′′′) | IFN-γ ELISpot response [10]: 51 SFU | Significant response as percentage of maximal peptide SFU (patient Q, max peptide 97 SFU): ′′′ (41-70% = ′′′) | IFN-γ ELISpot response [11]: 27 SFU | Significant response as percentage of maximal peptide SFU (patient U, max peptide 81 SFU): ′′ (21-40% = ′′) | IFN-γ ELISpot response [12]: 27 SFU | Significant response as percentage of maximal peptide SFU (patient V, max peptide 35 SFU): + (>70% = +) | IFN-γ ELISpot response [13]: 9 SFU | IFN-γ ELISpot response [14]: 9 SFU | Significant response as percentage of maximal peptide SFU (patient five, max peptide 48 SFU): + (>70% = +) | IFN-γ ELISpot response [15]: 10 SFU | Significant response as percentage of maximal peptide SFU (patient four, max peptide 44 SFU): ′′ (21-40% = ′′) | IFN-γ ELISpot response [16]: 9 SFU | IFN-γ ELISpot response [17]: 11 SFU | Significant response as percentage of maximal peptide SFU [21]: + (>70% = +) | IFN-γ ELISpot response [18]: 126 SFU | IFN-γ ELISpot response [19]: 20 SFU | IFN-γ ELISpot response [20]: 53 SFU | Significant response as percentage of maximal peptide SFU (patient two, max peptide 60 SFU): + (>70% = +)

PFPQQPQQPFPQP
IFN-γ ELISpot response [1]: 0 SFU | IFN-γ ELISpot response [2]: 0 SFU | IFN-γ ELISpot response [3]: 1 SFU | IFN-γ ELISpot response [4]: 0 SFU | IFN-γ ELISpot response [5]: 4 SFU | IFN-γ ELISpot response [6]: 2 SFU | IFN-γ ELISpot response [7]: 0 SFU | IFN-γ ELISpot response [8]: 2 SFU | IFN-γ ELISpot response [9]: 14 SFU | IFN-γ ELISpot response [10]: 9 SFU | IFN-γ ELISpot response [11]: 2 SFU | IFN-γ ELISpot response [12]: 3 SFU | IFN-γ ELISpot response [13]: 6 SFU | IFN-γ ELISpot response [14]: 3 SFU | IFN-γ ELISpot response [15]: 0 SFU | IFN-γ ELISpot response [16]: 1 SFU | IFN-γ ELISpot response [17]: 12 SFU | Significant response as percentage of maximal peptide SFU [21]: + (>70% = +) | IFN-γ ELISpot response [18]: 5 SFU | IFN-γ ELISpot response [19]: 2 SFU | IFN-γ ELISpot response [20]: 3 SFU
